Laboratory results reported in ChEMBL document CHEMBL1201862, “PubChem BioAssay data set” (2004).
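All cell lines were grown in 96-well plates and treated with compound for 48 hours. The concentration for 50% growth inhibition is given as GI50.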 Activity calls are given as the source filed them. Cut-off read from the data, not from the text of the source: active = GI50 up to about 1.1 µM and inactive = higher.

Experiments:
Assay in all cases: DTP human tumour cell line panel, 48 h
UACC-62 = tested on: UACC-62
DMS-114 = tested on: DMS-114
NCI-H23 = tested on: NCI-H23
EKVX = tested on: EKVX
CAKI-1 = tested on: CAKI-1
OVCAR-4 = tested on: OVCAR-4
HCT-116 = tested on: HCT-116
SK-MEL-2 = tested on: SK-MEL-2
SNB-78 = tested on: SNB-78
NCI-H460 = tested on: NCI-H460
HT-29 = tested on: HT-29
KM12 = tested on: KM12
LOX IMVI = tested on: LOX IMVI
HL-60 = tested on: HL-60
SN12C = tested on: SN12C
SF-539 = tested on: SF-539
TK-10 = tested on: TK-10
ACHN = tested on: ACHN
LXFL 529 = tested on: LXFL 529
RXF 631 = tested on: RXF 631

Row | Compound | GI50 (UACC-62) | GI50 (DMS-114) | GI50 (NCI-H23) | GI50 (EKVX) | GI50 (CAKI-1) | GI50 (OVCAR-4) | GI50 (HCT-116) | GI50 (SK-MEL-2) | GI50 (SNB-78) | GI50 (NCI-H460) | GI50 (HT-29) | GI50 (KM12) | GI50 (LOX IMVI) | GI50 (HL-60) | GI50 (SN12C) | GI50 (SF-539) | GI50 (TK-10) | GI50 (ACHN) | GI50 (LXFL 529) | GI50 (RXF 631)
1 | O=C(O)CCC(NC(=O)c1ccc(Nc2nc3ccc(C(F)(F)F)cc3nc2-c2ccccc2)cc1)C(=O)O (stereo not drawn) | > 100 µM (inactive) | > 100 µM (inactive) | > 100 µM (inactive) | > 100 µM (inactive) | > 57.8 µM (inactive) | > 100 µM (inactive) | > 100 µM (inactive) | > 100 µM (inactive) | > 100 µM (inactive) | > 100 µM (inactive) | > 100 µM (inactive) | > 100 µM (inactive) | > 100 µM (inactive) | > 100 µM (inactive) | > 100 µM (inactive) | > 100 µM (inactive) |  |  |  | 
2 | S=C1NN=C2C(=C3CCCC4C5CCCCC5N2C34)N1 (stereo not drawn) |  |  | > 100 µM (inactive) |  | > 100 µM (inactive) | > 100 µM (inactive) |  |  |  |  |  | > 100 µM (inactive) | 56.4 µM (inactive) | > 100 µM (inactive) |  |  | > 100 µM (inactive) | > 100 µM (inactive) |  | 
3 | CCC12CCC[C@@]13C=C[C@H](O3)C(C)(C)C2=O (stereo partly drawn) | > 100 µM (inactive) | > 100 µM (inactive) | > 100 µM (inactive) | > 100 µM (inactive) | > 100 µM (inactive) | > 100 µM (inactive) | > 100 µM (inactive) | > 100 µM (inactive) | > 100 µM (inactive) | > 100 µM (inactive) | > 100 µM (inactive) |  | > 100 µM (inactive) | > 100 µM (inactive) | > 100 µM (inactive) | > 100 µM (inactive) | > 100 µM (inactive) | > 100 µM (inactive) | > 100 µM (inactive) | > 100 µM (inactive)
4 | COc1ccc(C2C(C#N)=C(O)NC(O)=C2C#N)cc1OC |  |  |  | > 100 µM (inactive) | > 100 µM (inactive) |  | > 100 µM (inactive) | > 100 µM (inactive) | > 100 µM (inactive) |  | > 100 µM (inactive) | > 100 µM (inactive) |  |  | > 100 µM (inactive) | > 100 µM (inactive) |  |  | > 100 µM (inactive) | > 100 µM (inactive)
5 | CN(C)CCNCc1c2ccccc2c(CNCCN(C)C)c2ccccc12 | 26.1 µM (inactive) | 26 µM (inactive) | 36 µM (inactive) | 65.8 µM (inactive) |  | 28.3 µM (inactive) | 16.5 µM (inactive) | 22.4 µM (inactive) | 41.8 µM (inactive) | 27 µM (inactive) | 14 µM (inactive) | 39.4 µM (inactive) | 18.1 µM (inactive) | 20.5 µM (inactive) | 38.9 µM (inactive) | 28.2 µM (inactive) |  |  |  | 
6 | Nc1nc(=O)n(C2OC(CO)C(O)C2O)cc1F (stereo not drawn) | 1.36 µM (inactive) | 0.0462 µM (active) | 0.191 µM (active) |  | 1.65 µM (inactive) | > 100 µM (inactive) | 0.495 µM (active) | > 100 µM (inactive) |  | 0.102 µM (active) | 5.65 µM (inactive) | > 100 µM (inactive) | 0.297 µM (active) | 0.293 µM (active) | 3.28 µM (inactive) | 37.4 µM (inactive) |  |  |  | 
